2 compounds from patent publication US11649253B2, “Terbium and dysprosium complexes with optimised antenna, used as luminescent markers” (ECOLE NORMALE SUPERIEURE DE LYON, priority 2017, dated 2023) can be followed below.

Where “and” joins values, the source holds several entries; their conditions need not be identical. Equal entries are not always repeated.

The nature of data set [1]: Photophysical properties of the complexes measured in methanol. The class given is physicochemical. Conditions: for λ max: absorption; for B at λ max: brightness at λ max; for ε: molar extinction coefficient; for Φ: quantum yield. The procedure: (§1) The NMR (^1H, ^13C) spectra were recorded on a Bruker Avance device at a frequency of 300 MHz or 500.10 MHz, and 75 MHz or 125.75 MHz, for ^1H and ^13C respectively. Chemical shifts (δ) are expressed in parts per million (ppm) with respect to […] used as an internal standard and using the solvents indicated. The coupling constants (J) are expressed in Hz and the following notations are used: s (singlet), br (broad), d (doublet), t (triplet), dd (doublet of doublets), m (multiplet). The high-resolution mass spectra were recorded at the Lyon Common Mass Spectrometry Centre (Claude Bernard Lyon University, Lyon, France) on a MicroTOFQII instrument equipped with a positive ESI source. […] Purifications were carried out by chromatographic column on silica gel (silica gel 0.035-0.070 mm, 60 A). The solvents used for the reactions were purchased from Aldrich or Acros Organics as dry or extra dry solvents and stored on 3 Å molecular sieves and the reagents used were purchased from Aldrich, Acros Organics or Alfa Aesar. The UV/Vis absorption spectra were recorded on a JASCO V670 spectrometer; the emission spectra on a JOBIN-YVON fluorolog 3 spectrofluorimeter. Retention times were performed on an Agilent Technologies 1260 device equipped with a Waters XBridge RP-C18 column ([…], 4.6×100 mm). The chromatographic system used is 0.25 M ammonium formate-MeCN (v/v) as eluents: isocratic 15% MeCN (2 min), linear gradient 15 to 100% MeCN (16 min), isocratic 100% MeCN (4 min), at a rate of 1 mL/min, UV detection at 210 and 252 nm. Cellular imaging tests were performed using a solution concentrated in complex in DMSO to obtain a final complex concentration in the order of […] in cellular medium (PBS) with <1% DMSO. The T24 cells are prefixed to the PFA. The biphotonic absorption spectra were performed with a confocal laser scanning microscope LSM710 NLO (Carl Zeiss).
The properties of complexes Ia.1-Ia.6 and 8 were evaluated in methanol (Table 1) and water (Table 2). These properties were compared to those of complex 9, described in the document, Dalton Trans.

A short description of data set [2]: Photophysical properties of the complexes measured in water. Conditions: for λ max: absorption; for B at λ max: brightness at λ max; for ε: molar extinction coefficient. It is filed as physicochemical. On the procedure:
as §1
The properties of complexes Ia.1-Ia.6 and 8 were evaluated in methanol (Table 1) and water (Table 2). These properties were compared to those of complex 9, described in the document, Dalton Trans. 2015, 44, 4918, and of the following structure:
The spectroscopic properties of complexes Ia.2 and Ia.4 are stored in water (Table 2).

`COc1ccc(-c2cc(CN3CCN(Cc4cc(-c5ccc(OC)cc5)cc(C(=O)[O-])n4)CCN(Cc4cc(-c5ccc(OC)cc5)cc(C(=O)[O-])n4)CC3)nc(C(=O)[O-])c2)cc1.[Tb+3]` [complex 9, reference compound]: in data set [1] (methanol), the λ max came to 308 nm, the “B at λ max” value amounted to 3900 L/mol/cm, the ε was found to be 33000 L/mol/cm and the Φ worked out at 12%.
Consider `COCCOCCOCCOc1cc(C)c(-c2cc(CN3CCN(Cc4cc(-c5c(C)cc(OCCOCCOCCOC)cc5C)cc(C(=O)[O-])n4)CCN(Cc4cc(-c5c(C)cc(OCCOCCOCCOC)cc5C)cc(C(=O)[O-])n4)CC3)nc(C(=O)[O-])c2)c(C)c1.[Tb+3]` [Ia.4], for which the “decrease of the molar extinction coefficient on introduction of a second methyl group” value in data set [1] (Ia.4 compared with its counterpart Ia.2) is listed as “more than 50%”. The λ max in data set [1] (methanol) is 302 nm and 274 nm; in data set [2] (absorption band at 275 nm) it was 275 nm; in data set [2] (absorption band at 300 nm), 300 nm. Besides, the “B at 330 nm” value in data set [1] (brightness at 330 nm, methanol) amounted to 3400 L/mol/cm; in data set [2] (brightness at 330 nm), 2500 L/mol/cm. In addition, the “B at λ max” value in data set [1] (methanol) is 8500 L/mol/cm and 12000 L/mol/cm; in data set [2] (absorption band at 275 nm) it was 14000 L/mol/cm; in data set [2] (absorption band at 300 nm), 7800 L/mol/cm. Also, the T in data set [1] (luminescence lifetime, methanol) is 1.59 ms; in data set [2] (luminescence lifetime), 1.46 ms. For the same compound, the ε in data set [1] (methanol) was 13000 L/mol/cm and 19000 L/mol/cm; in data set [2] (absorption band at 275 nm) it was 21000 L/mol/cm; in data set [2] (absorption band at 300 nm) it was 11800 L/mol/cm. For the same compound, the values for the Φ in data set [1] (methanol) and in data set [2] (quantum yield) were 65% and 66%, respectively.
